# From US20230272016A1, “PEPTIDES FOR IMMUNOTHERAPY” (Second Genome, Inc., priority 2020, published 2023)
# System: human T cells
# Experiment: Human T cell activation assay (anti-CD3 plus peptide, cytokine secretion)
# Type: cell-based
# Procedure: FIGS. 11 and 12 show 150 peptide variants of the SG-3-0020 1-29 aa N-terminal+middle region, derived from a combinatorial phage display library, were tested for activation potential of human T cells. […] Increase in cytokine secretion was concordant in 3 donors.
# For example, PBMCs were obtained from individual human donors.
# T-cell activation was also determined as described previously (see above and International Application No. PCT/US2020/012431). […] Separate N-, MID, and C-terminal fragments lose activity. The data support that both N- and middle region are minimally required for binding and activation to T cells.
# [1] = Table 11, 150 combinatorial library variants of SEQ ID NO:1
# [2] = Table 10, combinatorial library variants of SEQ ID NO:1
Sequence,mean_ES_IFN-γ [1],mean_ES_IFN-γ [2]
VLSTAKGKTHDHYPGGRMRPPPWHDWRAR [SEQ ID NO: 257],0.918,
VPSAAKGKWHDHNGSGRMRDPGWHDWRFS [SEQ ID NO: 348],−0.009349,
VPSAAKGKWHDHNPGGRHRPPPWHDWRAS [SEQ ID NO: 291],0.7119,
VSSAAKGKTHDHNPSGRMRPPPWHDWRFS [SEQ ID NO: 322],0.4538,
VSSAAKGKTHDHYPSGRMRPPPWHDWRGR [SEQ ID NO: 283],0.7475,
VSSGAKGKTHDHYPSGRMRPPPWHDWRFS [SEQ ID NO: 297],0.6662,
VSSGAKTKTHDHNPSGRMRDFKWHDWRGS [SEQ ID NO: 350],−0.1153,
VTSAAKGKTHDHYPSGRMRPPPWHDWRFS [SEQ ID NO: 312],0.5616,
VTSAAKGKTHDHYPSGRYRPPPWHDWRGR [SEQ ID NO: 310],0.5718,
VTSAAKGKWHDHWPSGRYRDPPWHDWRVS [SEQ ID NO: 308],0.588,
VTSAAKTKWHDHNGSGRYRDPGWHDWRGS [SEQ ID NO: 347],0.01499,
VTSTAKGKTHDHNWSGRYRPPPWHDWRAR [SEQ ID NO: 9],1.28,1.28
VVSGAKGKTHDHNWGGRYRPPPWHDWRGS [SEQ ID NO: 296],0.6729,
VVSTAKGKTHDHYPGGRMRPPPWHDWRAR [SEQ ID NO: 251],0.952,
VVSTAKGKTHDHYWSGRYRPPPWHDWRAR [SEQ ID NO: 259],0.9101,
WASAAKGKTHDHYGGGRMRPPPWHDWRAR [SEQ ID NO: 323],0.4505,
WASGAKGKTHDHNPSGRWRDPGWHDWRGS [SEQ ID NO: 330],0.3705,
WASGAKGKTHDHWPGGRHRDPPWHDWRVS [SEQ ID NO: 271],0.8431,
WASGAKGKTHDHYPSGRMRPPPWHDWRWS [SEQ ID NO: 278],0.7784,
WASGAKGKWHDHYGGGRYRDPGWHDWRGS [SEQ ID NO: 20],1.135,1.135

Sequence,mean_ES_IFN-γ [1],mean_ES_IFN-γ [2]
WASGAKGKWHDHYGSGRYRPPPWHDWRGS [SEQ ID NO: 290],0.712,
WGSAAKGKTHDHNWSGRYRPPPWHDWRVS [SEQ ID NO: 302],0.6264,
WGSAAKGKTHDHWPSGRHRDPPWHDWRVR [SEQ ID NO: 31],1.044,1.044
WGSAAKGKTHDHWPSGRMRDPPWHDWRVS [SEQ ID NO: 256],0.9254,
WGSAAKGKTHDHWPSGRYRDPKWHDWRVS [SEQ ID NO: 21],1.134,1.134
WGSAAKGKTHDHYGSGRYRDPPWHDWRAR [SEQ ID NO: 32],1.038,1.038
WGSAAKGKWHDHYPSGRMRPPPWHDWRVR [SEQ ID NO: 275],0.8178,
WGSGAKGKTHDHNGGGRMRPPPWHDWRAS [SEQ ID NO: 334],0.3217,
WGSGAKGKTHDHWGSGRWRDPGWHDWRGS [SEQ ID NO: 5],1.324,1.324
WGSGAKTKWHDHNWSGRMRPPPWHDWRFS [SEQ ID NO: 354],−0.315,
WLSAAKAKTHDHWGSGRHRPPPWHDWRGS [SEQ ID NO: 315],0.5302,
WLSAAKGKTHDHWGSGRWRDPPWHDWRFS [SEQ ID NO: 345],0.06564,
WLSTAKGKTHDHNWSGRYRPPPWHDWRVR [SEQ ID NO: 307],0.6005,
WPSAAKGKTHDHNPSGRMRPPPWHDWRFS [SEQ ID NO: 26],1.078,1.078
WPSAAKGKTHDHYPGGRYRPPPWHDWRVR [SEQ ID NO: 295],0.6782,
WPSGAKGKWHDHYPGGRMRPPPWHDWRFS [SEQ ID NO: 4],1.351,1.351
WPSGAKTKTHDHNWGGRMRDPPWHDWRGS [SEQ ID NO: 339],0.2814,
WPSTAKGKTHDHYGGGRMRPPPWHDWRAR [SEQ ID NO: 318],0.5137,
WQSAAKTKTHDHWPGGRMRPPPWHDWRAR [SEQ ID NO: 352],−0.2305,
WQSAAKTKTHDHWPSGRYRPPPWHDWRAS [SEQ ID NO: 294],0.6837,

Sequence,mean_ES_IFN-γ [1],mean_ES_IFN-γ [2]
WSSAAKGKTHDHNPSGRHRPPPWHDWRVS [SEQ ID NO: 304],0.6137,
WSSAAKGKTHDHNWSGRHRPPPWHDWRFS [SEQ ID NO: 250],0.9527,
WSSAAKGKTHDHWGGGRYRPPPWHDWRAS [SEQ ID NO: 17],1.172,1.172
WSSAAKGKTHDHYGGGRMRPPPWHDWRAR [SEQ ID NO: 338],0.2829,
WSSAAKGKTHDHYGSGRMRDFGWHDWRFS [SEQ ID NO: 274],0.8191,
WSSAAKGKTHDHYPSGRHRPPPWHDWRVS [SEQ ID NO: 253],0.9469,
WSSAAKTKWHDHNPGGRYRPPPWHDWRFR [SEQ ID NO: 332],0.3258,
WSSGAKTKWHDHNGSGRYRPPPWHDWRGS [SEQ ID NO: 286],0.7241,
WSSGAKTKWHDHNPGGRMRDPPWHDWRGS [SEQ ID NO: 335],0.3156,
WSSGAKTKWHDHYGSGRHRDPKWHDWRGS [SEQ ID NO: 19],1.147,1.147
WSSTAKGKTHDHWPSGRYRPPPWHDWRAR [SEQ ID NO: 35],1.009,1.009
WSSTAKTKWHDHNGGGRMRPPPWHDWRAR [SEQ ID NO: 305],0.612,
WTSAAKGKTHDHYPSGRYRPPPWHDWRVR [SEQ ID NO: 357],−1.02,
WTSAAKGKWHDHNGSGRHRDPPWHDWRAR [SEQ ID NO: 289],0.7151,
WTSAAKTKWHDHYGGGRMRPPPWHDWRAR [SEQ ID NO: 272],0.8379,
WTSGAKGKWHDHNGGGRMRDPGWHDWRFS [SEQ ID NO: 309],0.5851,
WTSGAKGKWHDHYGGGRYRDPGWHDWRFS [SEQ ID NO: 280],0.7716,
WVSAAKGKTHDHNGGGRWRDPGWHDWRFS [SEQ ID NO: 336],0.3032,
WVSAAKGKTHDHWGSGRHRDPPWHDWRAR [SEQ ID NO: 30],1.052,1.052
WVSAAKGKWHDHYGSGRMRDPPWHDWWGS [SEQ ID NO: 24],1.104,1.104
